Consider 18 compounds from US20120232070A1, “Use of Indole Derivatives as Nurr-1 Activators for the Application Thereof as a Medicament for the Treatment of Parkinson's Disease” (Laboratoires Fournier SA, priority 2009, published 2012).

A value given as a limit tells only on which side of the number the result lay.

Experiment [1] has as its target hNurr1_RXRγFL (NURR1/RXRγ heterodimer) (Homo sapiens, UniProt P43354+P48443). Briefly: Transactivation assay in Cos-7 cells, NURR-1-Gal4 / RXRγ, luciferase reporter. In kind it is cell-based. To be noted: for Emax: COS-7, read-out: hNurr1_RXRγFL Eff (%), efficacy in % relative to the reference XCT0135908 at 2·10^−5 M (=100%); for EC50: Cos-7 cells, overnight incubation. The method in brief: (§1)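 Efficiency is given as a percentage of the induction produced by 2·10^−5 M XCT0135908 (100%), measured from heterodimer baseline. Read-out was luciferase after overnight exposure to compounds (10^−4–3·10^−10 M final) in Cos-7 cells transfected with NURR-1-Gal4, RXRα or RXRγ, and a Gal4 luciferase reporter.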
For orientation: A reporter such as luciferase makes a cellular process visible.

Experiment [2] concerns the target hNurr1_RXRαFL (NURR1/RXRα heterodimer) (Homo sapiens, UniProt P19793+P43354). Briefly: Transactivation assay in Cos-7 cells, NURR-1-Gal4 / RXRα, luciferase reporter. It counts as cell-based. As to conditions: for Emax: COS-7, read-out: hNurr1_RXRαFL Eff (%), efficacy in % relative to the reference XCT0135908 at 2·10^−5 M (=100%); for EC50: Cos-7 cells, overnight incubation. Summed up: as §1

Sequence of hNurr1_RXRαFL (NURR1/RXRα heterodimer) (P19793 whole entry, the tested form may be a part): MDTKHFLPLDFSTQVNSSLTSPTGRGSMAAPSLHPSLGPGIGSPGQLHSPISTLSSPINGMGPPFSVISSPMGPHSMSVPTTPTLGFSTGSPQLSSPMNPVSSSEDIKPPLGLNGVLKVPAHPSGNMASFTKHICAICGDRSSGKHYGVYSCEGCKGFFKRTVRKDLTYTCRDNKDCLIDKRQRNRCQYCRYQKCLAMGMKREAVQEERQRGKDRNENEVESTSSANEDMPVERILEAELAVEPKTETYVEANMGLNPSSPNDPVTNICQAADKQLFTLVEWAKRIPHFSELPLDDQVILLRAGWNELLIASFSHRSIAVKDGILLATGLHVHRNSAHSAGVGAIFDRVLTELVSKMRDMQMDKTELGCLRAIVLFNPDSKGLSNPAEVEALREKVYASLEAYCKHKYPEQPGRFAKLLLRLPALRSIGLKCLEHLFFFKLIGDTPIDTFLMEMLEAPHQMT
Sequence of hNurr1_RXRαFL (NURR1/RXRα heterodimer) (P43354 328-598): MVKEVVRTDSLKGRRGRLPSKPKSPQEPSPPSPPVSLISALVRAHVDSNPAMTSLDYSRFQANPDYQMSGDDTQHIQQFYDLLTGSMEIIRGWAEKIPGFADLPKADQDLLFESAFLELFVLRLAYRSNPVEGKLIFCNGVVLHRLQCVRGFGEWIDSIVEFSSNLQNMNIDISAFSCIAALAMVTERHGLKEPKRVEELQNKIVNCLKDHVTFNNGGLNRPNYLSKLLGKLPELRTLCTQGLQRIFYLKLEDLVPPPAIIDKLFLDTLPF
Sequence of hNurr1_RXRγFL (NURR1/RXRγ heterodimer) (P43354 328-598): as above
Sequence of hNurr1_RXRγFL (NURR1/RXRγ heterodimer) (P48443 whole entry, the tested form may be a part): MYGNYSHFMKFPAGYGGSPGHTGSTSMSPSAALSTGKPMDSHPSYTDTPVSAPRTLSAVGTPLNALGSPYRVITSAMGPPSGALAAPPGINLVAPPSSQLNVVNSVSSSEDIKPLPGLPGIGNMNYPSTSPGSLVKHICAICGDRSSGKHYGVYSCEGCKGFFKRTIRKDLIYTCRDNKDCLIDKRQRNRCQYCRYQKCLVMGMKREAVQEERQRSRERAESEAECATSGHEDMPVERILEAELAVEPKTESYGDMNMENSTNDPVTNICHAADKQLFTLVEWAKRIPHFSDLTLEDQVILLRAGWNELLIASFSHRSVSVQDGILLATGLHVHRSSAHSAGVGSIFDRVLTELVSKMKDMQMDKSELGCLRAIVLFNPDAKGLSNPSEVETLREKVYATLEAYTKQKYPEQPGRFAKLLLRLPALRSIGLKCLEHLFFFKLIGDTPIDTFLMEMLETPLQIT

Turning to `CC1(C)CCc2cc(S(=O)(=O)n3c(Cc4ccc(C(=O)O)cc4)cc4cc(C(F)(F)F)ccc43)ccc2O1` [Example 132, 4-[[1-[(3,4-dihydro-2,2-dimethyl-2H-1-benzopyran-6-yl)sulfonyl]-5-(trifluoromethyl)-1H-indol-2-yl]methyl]benzoic acid], in experiment [1], the Emax came out at 28% and the response was half-maximal at 352 nM (EC50). In experiment [2], the Emax was 45% and a half-maximal effect (EC50) was put at 221 nM.
In the same order, the values of `CCc1ccc(S(=O)(=O)n2c(Cc3ccc(C(=O)O)cc3)cc3cc(C(F)(F)F)ccc32)cc1` [Example 133, 4-[[1-[4-ethyl-phenylsulfonyl]-5-(trifluoromethyl)-1H-indol-2-yl]methyl]benzoic acid] are 38%, 304 nM, 49% and 177 nM.
For the compound `Cc1ccc(S(=O)(=O)n2c(Cc3ccc(C(=O)O)cc3)cc3cc(C(F)(F)F)ccc32)cc1` [Example 134], in experiment [1], the Emax was 36% and a half-maximal response (EC50) required 552 nM. Also, in experiment [2], the Emax amounted to 50% and the EC50 (in general, the concentration that produces a half-maximal response) was 212 nM.
With `O=C(O)c1ccc(Cc2cc3cc(C(F)(F)F)ccc3n2S(=O)(=O)c2ccc(N3CCOCC3)nc2)cc1` [Example 135, 4-[[1-[[6-(4-morpholinyl)-3-pyridinyl]sulfonyl]-5-(trifluoromethyl)-1H-indol-2-yl]methyl]benzoic acid], in experiment [1], the Emax stood at 19% and the EC50 came out at 917 nM. Besides, in experiment [2], the Emax was 31% and the EC50 was found to be 643 nM.
With `O=C(O)c1ccc(Cc2cc3cc(C(F)(F)F)ccc3n2S(=O)(=O)c2ccc(Cl)cc2)cc1` [Example 136, 4-[[1-[4-chloro-phenylsulfonyl]-5-(trifluoromethyl)-1H-indol-2-yl]methyl]benzoic acid], in experiment [1], the Emax was 25% and the EC50 is greater than 10000 nM. For the same compound, in experiment [2], the Emax was determined as 35% and the EC50 was found to be 275 nM.
In the same order, the values of `O=C(O)c1ccc(Cc2cc3cc(C(F)(F)F)ccc3n2S(=O)(=O)c2ccc(F)cc2)cc1` [Example 137, 4-[[1-[4-fluoro-phenylsulfonyl]-5-(trifluoromethyl)-1H-indol-2-yl]methyl]benzoic acid] are 18%, 730 nM, 37% and 529 nM.
`COc1ccc(S(=O)(=O)n2c(Cc3ccc(C(=O)O)cc3)cc3cc(C(F)(F)F)ccc32)cc1` [Example 138, 4-[[1-[4-methoxy-phenylsulfonyl]-5-(trifluoromethyl)-1H-indol-2-yl]methyl]benzoic acid]: in experiment [1], the Emax is 28% and the EC50 turned out to be 583 nM. In addition, in experiment [2], the Emax was 41% and the midpoint of the response, the EC50, lay at 344 nM.
The like results for `CCCc1ccc(S(=O)(=O)n2c(Cc3ccc(C(=O)O)cc3)cc3cc(C(F)(F)F)ccc32)cc1` [Example 139, 4-[[1-[4-propyl-phenylsulfonyl]-5-(trifluoromethyl)-1H-indol-2-yl]methyl]benzoic acid] were, in that order, 43%, 344 nM, 46% and 202 nM.
In the same order, the values of `CCCCCc1ccc(S(=O)(=O)n2c(Cc3ccc(C(=O)O)cc3)cc3cc(C(F)(F)F)ccc32)cc1` [Example 140, 4-[[1-[4-pentyl-benzenesulfonyl]-5-(trifluoromethyl)-1H-indol-2-yl]methyl]benzoic acid] are 22%, 387 nM, 46% and 368 nM.
The like results for `Cc1cccc(S(=O)(=O)n2c(Cc3ccc(C(=O)O)cc3)cc3cc(C(F)(F)F)ccc32)c1` [Example 141, 4-[[1-[(3-methylphenyl)sulfonyl]-5-(trifluoromethyl)-1H-indol-2-yl]methyl]benzoic acid] were, in that order, 30%, 364 nM, 41% and 285 nM.
As for `O=C(O)c1ccc(Cc2cc3cc(C(F)(F)F)ccc3n2S(=O)(=O)c2ccc(OC(F)(F)F)cc2)cc1` [Example 142, 4-[[1-[4-trifluoromethoxy-phenylsulfonyl]-5-(trifluoromethyl)-1H-indol-2-yl]methyl]benzoic acid], in experiment [1], the Emax worked out at 19% and it took 816 nM to reach a half-maximal effect (EC50). In addition, in experiment [2], the Emax stood at 38% and the EC50 worked out at 459 nM.
In the same order, the values of `O=C(O)c1ccc(Cc2cc3cc(C(F)(F)F)ccc3n2S(=O)(=O)c2cccc(Cl)c2)cc1` [Example 143, 4-[[1-[3-chloro-phenylsulfonyl]-5-(trifluoromethyl)-1H-indol-2-yl]methyl]benzoic acid] are 18%, 425 nM, 33% and 339 nM.
In the same order, the values of `O=C(O)c1ccc(Cc2cc3cc(C(F)(F)F)ccc3n2S(=O)(=O)c2ccc(Oc3ccccc3)cc2)cc1` [Example 144, 4-[[1-[4-phenoxy-phenylsulfonyl]-5-(trifluoromethyl)-1H-indol-2-yl]methyl]benzoic acid] are 19%, greater than 10000 nM, 30% and 839 nM.
The like results for `O=C(O)c1ccc(Cc2cc3cc(C(F)(F)F)ccc3n2S(=O)(=O)c2cccc(OC(F)(F)F)c2)cc1` [Example 145, 4-[[1-[3-trifluoromethoxy-phenylsulfonyl]-5-(trifluoromethyl)-1H-indol-2-yl]methyl]benzoic acid] were, in that order, 21%, 638 nM, 44% and 359 nM.
For the compound `O=C(O)c1ccc(Cc2cc3cc(C(F)(F)F)ccc3n2S(=O)(=O)c2cccc(-c3ccc(Cl)cc3)c2)cc1` [Example 146, 4-[[1-[4′-chloro-biphenyl-3-sulfonyl]-5-(trifluoromethyl)-1H-indol-2-yl]methyl]benzoic acid], in experiment [1], the Emax stood at 24% and it took 1180 nM to reach a half-maximal effect (EC50). Moreover, in experiment [2], the Emax stood at 43% and the EC50 turned out to be 619 nM.
With `O=C(O)c1ccc(Cc2cc3cc(C(F)(F)F)ccc3n2S(=O)(=O)c2ccc(Cl)c(OC(F)F)c2)cc1` [Example 147, 4-[[1-[4-chloro-3-difluoromethoxy-phenylsulfonyl]-5-(trifluoromethyl)-1H-indol-2-yl]methyl]benzoic acid], in experiment [1], the Emax came out at 30% and the EC50 is 1100 nM. Further, in experiment [2], the Emax came to 49% and the EC50 turned out to be 825 nM.
For `COC(=O)c1ccc(Cc2c(F)c3cc(C(F)(F)F)ccc3n2S(=O)(=O)c2cccc(C(C)(C)C)c2)cc1` [Example 148, 4-[[1-[[3-(1,1-dimethylethyl)phenyl]sulfonyl]-3-fluoro-5-(trifluoromethyl)-1H-indol-2-yl]methyl]-benzoic acid, methyl ester], the Emax in experiment [1] is 101%; in experiment [2] it was 119%. The EC50 was found to be 121 nM in experiment [1] and 62 nM in experiment [2].
`CC(C)(C)c1cccc(S(=O)(=O)n2c(Cc3ccc(C(=O)O)cc3)c(F)c3cc(C(F)(F)F)ccc32)c1` [Example 149, 4-[[1-[[3-(1,1-dimethylethyl)phenyl]sulfonyl]-3-fluoro-5-(trifluoromethyl)-1H-indol-2-yl]methyl]-benzoic acid]: in experiment [1], the Emax is 80% and a half-maximal effect (EC50) was put at 225 nM. Moreover, in experiment [2], the Emax came to 98% and the EC50 stood at 94 nM.
